Test: mn = molality of the nth substance listed, in mol/kg
Details: 101 kPa, Liquid; for mass density: Vibrating tube method; for speed of sound: Pulse-echo method

O=S(=O)([O-])C(F)(F)F.O=S(=O)([O-])C(F)(F)F.O=S(=O)([O-])C(F)(F)F.[Gd+3] [gadolinium (III) trifluoromethanesulfonate] + CC(=O)N(C)C
Details	mass density, 283.15 K [kg/m3]	mass density, 293.15 K [kg/m3]	mass density, 298.15 K [kg/m3]	mass density, 303.15 K [kg/m3]	mass density, 313.15 K [kg/m3]	mass density, 323.15 K [kg/m3]	mass density, 333.15 K [kg/m3]	speed of sound, 298.15 K [m/s]
m1 = 0.02128	959.25	950.04	945.43	940.82	931.58	922.32	913.01	1456.1
m1 = 0.02915	962.65	953.45	948.84	944.24	935	925.73	916.44	1455.9
m1 = 0.03784	966.42	957.21	952.61	948.01	938.78	929.52	920.23	1455.7
m1 = 0.04864	971.16	961.95	957.35	952.76	943.52	934.27	924.97	1455.4
m1 = 0.05951	975.96	966.76	962.16	957.57	948.33	939.08	929.78	1455
m1 = 0.07557	983.07	973.86	969.27	964.67	955.44	946.19	936.89	1454.7
m1 = 0.0965	992.52	983.33	978.73	974.12	964.89	955.64	946.35	1454
m1 = 0.1165	1001.67	992.48	987.87	983.27	974.05	964.79	955.49	1453.6
m1 = 0.1341	1009.86	1000.66	996.06	991.46	982.24	972.98	963.68	1452.9
m1 = 0.1567	1020.47	1011.27	1006.67	1002.09	992.85	983.6	974.31	1452.5
m1 = 0.1757	1029.6	1020.41	1015.81	1011.21	1001.99	992.73	983.44	1451.8

O=S(=O)([O-])C(F)(F)F.O=S(=O)([O-])C(F)(F)F.O=S(=O)([O-])C(F)(F)F.[Gd+3] [gadolinium (III) trifluoromethanesulfonate] + CN(C)C=O
Details	mass density, 283.15 K [kg/m3]	mass density, 293.15 K [kg/m3]	mass density, 298.15 K [kg/m3]	mass density, 303.15 K [kg/m3]	mass density, 313.15 K [kg/m3]	mass density, 323.15 K [kg/m3]	mass density, 333.15 K [kg/m3]	speed of sound, 298.15 K [m/s]
m1 = 0.01967	966.39	956.87	952.11	947.35	937.76	928.14	918.46	1455.8
m1 = 0.02703	969.53	960.01	955.25	950.48	940.9	931.28	921.61	1455.2
m1 = 0.03489	972.9	963.38	958.61	953.84	944.26	934.64	924.97	1454.5
m1 = 0.04531	977.36	967.83	963.07	958.3	948.72	939.1	929.43	1453.6
m1 = 0.05527	981.65	972.13	967.36	962.59	953.01	943.4	933.75	1452.8
m1 = 0.07019	988.17	978.65	973.89	969.1	959.52	949.91	940.24	1451.5
m1 = 0.09028	997.06	987.52	982.77	977.97	968.39	958.77	949.11	1449.4
m1 = 0.108	1004.97	995.43	990.66	985.88	976.29	966.68	957.02	1448
m1 = 0.1249	1012.67	1003.13	998.36	993.58	983.99	974.37	964.71	1446.3
m1 = 0.146	1022.39	1012.83	1008.05	1003.28	993.69	984.07	974.42	1443.5
m1 = 0.1634	1030.52	1020.96	1016.18	1011.39	1001.8	992.19	982.54	1441.7

O=S(=O)([O-])C(F)(F)F.O=S(=O)([O-])C(F)(F)F.O=S(=O)([O-])C(F)(F)F.[La+3] [lanthanum(III) trifluoromethanesulfonate] + CC(=O)N(C)C
Details	mass density, 283.15 K [kg/m3]	mass density, 293.15 K [kg/m3]	mass density, 298.15 K [kg/m3]	mass density, 303.15 K [kg/m3]	mass density, 313.15 K [kg/m3]	mass density, 323.15 K [kg/m3]	mass density, 333.15 K [kg/m3]	speed of sound, 298.15 K [m/s]
m1 = 0.02085	958.67	949.47	944.86	940.26	931.01	921.74	912.42	–
m1 = 0.02801	961.64	952.45	947.84	943.23	933.99	924.71	915.39	–
m1 = 0.03761	965.63	956.43	951.81	947.21	937.97	928.7	919.38	–
m1 = 0.04797	969.94	960.74	956.14	951.53	942.29	933.02	923.71	–
m1 = 0.05797	974.13	964.94	960.34	955.73	946.49	937.22	927.91	–
m1 = 0.07244	980.27	971.08	966.48	961.88	952.67	943.36	934	1455.9
m1 = 0.09378	989.43	980.24	975.64	971.03	961.79	952.5	943.16	–
m1 = 0.1127	997.64	988.45	983.85	979.24	969.99	960.7	951.36	–
m1 = 0.1302	1005.34	996.15	991.55	986.95	977.69	968.39	959.05	–
m1 = 0.1523	1015.25	1006.06	1001.46	996.85	987.59	978.29	968.93	–
m1 = 0.1712	1023.81	1014.62	1010.03	1005.42	996.16	986.84	977.5	–
